The test system of one data set is BT-474c cells. Briefly: Cell growth in vitro (confluency, Incucyte ZOOM). In kind it is cell-based, human. The procedure: (§1) Figure 8 Dual treatment with Akt and SGK inhibitors reduces tumour growth in BT‐474 xenograft model • BT‐474 cells were treated for the indicated times with 0.3 μM MK‐2206. The cell lysates were analysed by immunoblot using the indicated antibodies. • BT‐474c cells were treated with inhibitors as indicated either as monotherapy or in combination and cell confluency measured on the Incucyte ZOOM every 4 h for up to 4 weeks. • BT‐474 cells were injected subcutaneously into athymic Foxn1 ^nu nude mice. […] The tumour volume was measured twice a week. Tumour growth is represented as the fold change mean ± SEM. • All mice were weighed at the end of the treatments. […] Results are presented as a mean ± SD from three different samples. • Tumours were harvested at the end of the experiment, 4 h after the last dosage and subjected to immunohistochemical analysis using cleaved caspase‐3 antibody (clCasp3). Apoptotic cells were counted in 25 fields per condition (left panel) and quantified as clCasp3‐positive cells/field (right panel). The results are presented as mean ± SD number of cleaved caspase‐3 positive cells. Representative images are shown. Scale bar, 100 μm. • Tumours were harvested at the end of the experiment, 4 h after the last dosage and subjected to immunohistochemical analysis with the indicated antibodies. Representative images are shown. Scale bar, 100 μm. • Tumours were obtained the same way as in (G) and subjected to immunoblot analysis with the indicated antibodies. Six different tumours were analysed from each treatment group and each line represents one tumour sample. TEXT PRINTED IN THE PICTURE: (E) MK-2206: plasma conc.
SGK3 (upper panel) and S6K1 (middle panel) were immunoprecipitated and subjected to in vitro kinase assay by measuring phosphorylation of the Crosstide substrate peptide in the presence of 0.1 mM [γ‐^32P]ATP in a 30 min 30°C reaction. Kinase reactions are presented as means ± SD for triplicate reaction. Immunoprecipitates (IP) were also analysed by immunoblot with the indicated antibodies. […]

The subject of data set [1] is BT-474 human breast xenograft. The data set can be described thus: BT-474 xenograft tumour growth in nude mice. In kind it is in vivo. The conditions noted are these: 24 days, monotherapy. The procedure: (§2) Figure 8 Dual treatment with Akt and SGK inhibitors reduces tumour growth in BT‐474 xenograft model • BT‐474 cells were treated for the indicated times with 0.3 μM MK‐2206. The cell lysates were analysed by immunoblot using the indicated antibodies. • BT‐474c cells were treated with inhibitors as indicated either as monotherapy or in combination and cell confluency measured on the Incucyte ZOOM every 4 h for up to 4 weeks. • BT‐474 cells were injected subcutaneously into athymic Foxn1 ^nu nude mice. […] The tumour volume was measured twice a week. Tumour growth is represented as the fold change mean ± SEM. • All mice were weighed at the end of the treatments. […] Apoptotic cells were counted in 25 fields per condition (left panel) and quantified as clCasp3‐positive cells/field (right panel). […] Six different tumours were analysed from each treatment group and each line represents one tumour sample. […]
(§3) Experiments involving mice were in accordance with Institutional Guidelines of Memorial Sloan Kettering Cancer Center (Protocol number 12‐10‐019). […] When tumours reached a volume of ~150 mm^3, mice were randomised, treated, and tumours were measured twice a week. Tumour volume was determined using the following formula: (length × width^2) ÷ 2. […]

Data set [2] can be described thus: Plasma concentration at end of xenograft study. In kind it is in vivo, mice. The conditions noted are these: 2–3 h after last dose on day 24, MK-2206 100 mg/kg, 14h 25 mg/kg p.o. The procedure: as §1
The test system of the next data set is BT-474 xenograft tumours. The data set can be described thus: Immunohistochemical and immunoblot analysis of signalling markers in xenograft tumours. In kind it is in vivo, mice. The conditions noted are these: end of treatment, IHC and immunoblot. On the procedure:
as §2, §3
(In western blotting, separated proteins are transferred to a membrane and probed.)

The subject of data set [3] is NDRG1 phosphorylation in ZR-75-1 cells. The data set can be described thus: Immunoblot of NDRG1 (Thr346) phosphorylation in breast cancer cells. In kind it is cell-based, human. The conditions noted are these: 1 μM, 1 h; ZR-75-1, CAMA-1 (and T47D for PI3K inhibitors). The procedure: Cell lysates were subjected to immunoblot analysis with the indicated antibodies. • ZR‐75‐1 cells cultured in serum in the absence of Akt inhibitor were treated for 1 h with the indicated concentrations of VPS34‐IN1. […] One hour prior to lysis, the cells were incubated in the presence or absence of 1 μM VPS34‐IN1. SGK3 was immunoprecipitated from lysates and subjected to in vitro kinase assay by measuring phosphorylation of the Crosstide substrate peptide in the presence of 0.1 mM [γ‐^32P]ATP in a 30 min 30°C reaction (upper panel). Kinase reactions are presented as means ± SD for triplicate reaction. Immunoprecipitates (IP) and lysates were analysed by immunoblot with the indicated antibodies. […] SGK3 was immunoprecipitated from the lysates and subjected to in vitro kinase assay as in (C). Kinase reactions are presented as means ± SD for triplicate reaction. Immunoprecipitates (IP) and lysates (lower panel) were also subjected to immunoblot analysis with the indicated antibodies. • ZR‐75‐1 cells were cultured in the absence or presence of 1 μM MK‐2206 for 5 days. Cells were then treated in the absence or presence of 0.1 μM AZD8055 or 0.1 μM rapamycin for 1 h. SGK3 was immunoprecipitated and subjected to in vitro kinase assay as in (C). Kinase reactions are presented as means ± SD for triplicate reaction. The immunoprecipitates (IP) and lysates were analysed with the indicated antibodies.
One hour prior to lysis, the cells were incubated in the presence of absence of 0.3 μM SAR405. SGK3 was immunoprecipitated from lysates and subjected to in vitro kinase assay by measuring phosphorylation of the Crosstide substrate peptide in the presence of 0.1 mM [γ‐^32P]ATP in a 30 min 30°C reaction (upper panel). Kinase reactions are presented as means ± SD for triplicate reaction. Immunoprecipitates (IP) and lysates were also analysed by immunoblot with the indicated antibodies.
The result for each kinase is presented as a mean kinase activity of the reaction taken in triplicate relative to a control reaction where the inhibitors were omitted. […] SGK3 was immunoprecipitated from cell lysates and subjected to in vitro kinase assay by measuring phosphorylation of the Crosstide substrate peptide in the presence of 0.1 mM [γ‐^32P]ATP in a 30 min 30°C reaction (upper panel). Kinase reactions are presented as means ± SD for triplicate reaction.
HEK293 cells were purchased from the American Tissue Culture Collection (ATCC). Cells were cultured in RPMI or DMEM media supplemented with 10% (v/v) foetal bovine serum, 2 mM L‐glutamine, 100 U/ml penicillin and 0.1 mg/ml streptomycin. Inhibitor treatments were carried out as described in figure legends. During 5 days inhibitor treatments, the media was changed after 72‐h intervals. The cells were lysed in buffer containing 50 mM Tris–HCl (pH 7.5), 150 mM NaCl, 1 mM EDTA, 1 mM EGTA, 1 mM sodium orthovanadate, 10 mM sodium glycerophosphate, 10 mM sodium pyrophosphate, 0.27 M sucrose, 0.1% (v/v) 2‐mercaptoethanol, 1 mM benzamidine and 0.1 mM PMSF. Lysates were clarified by centrifugation at 16,000 g for 10 min at 4°C. Protein concentration was calculated using Bradford assay (Thermo Scientific). Immunoblotting and immunoprecipitation were performed using standard procedures. The signal was developed using ECL Western Blotting Detection Kit (Amersham) on Amersham Hyperfilm ECL film (Amersham).

`Nc1n[nH]c2nc(-c3ccc(NS(=O)(=O)c4cc(Cl)ccc4Cl)cc3)cnc12` [14h]: the “cell growth when 14h is combined with Akt inhibitor” value in the data set on BT-474c cells (3 μM 14h with 0.3 μM AZD5363 or MK-2206, from beginning or 12 days after) is listed as “further reduction in cell growth”. Moreover, the anti-proliferative effect alone entry in the data set on BT-474c cells (3 μM, 5–6 days) is reported as “little anti‐proliferative effect”. For the same molecule, the anti-tumour effect entry in data set [1] (25 mg/kg p.o. 5 times/week) is recorded as “No anti‐tumour effects”. Further, the plasma conc. in data set [2] (dual treatment) turned out to be 1390 ± 360 nM; in data set [2] (mono treatment) it was 1770 ± 540 nM. Besides, the “phosphorylation markers in tumour samples (Akt 473, PRAS40, NDRG1, S6)” value in the data set with BT-474 xenograft tumours is recorded as “no major effect”.
With `NC1(c2ccc(-c3nc4ccn5c(=O)[nH]nc5c4cc3-c3ccccc3)cc2)CCC1` [MK-2206], the “phosphorylation of PRAS40 (Thr246) and NDRG1 (Thr346)” value in data set [3] is “inhibited”. For the same molecule, the “time to reach confluency” value in the data set with BT-474c cells (0.3 μM Akt inhibitor, long-term growth assay) is listed as around 20 days. Further, in data set [1] (100 mg/kg p.o. 5 times/week), the “inhibition of in vivo growth of BT-474” value is ~ 20%. For the same molecule, the plasma conc. in data set [2] (dual treatment) worked out at 2690 ± 250 nM; in data set [2] (mono treatment), 2690 ± 530 nM. Moreover, the “phosphorylation markers in tumour samples (Akt 473, PRAS40, NDRG1, S6)” value in the data set with BT-474 xenograft tumours is “ablated Akt 473 and PRAS40 phosphorylation”.

Source of the values: paper PMC5007552, “The hVps34‐SGK3 pathway alleviates sustained PI3K/Akt inhibition by stimulating mTORC1 and tumour growth” (The EMBO Journal, 2016).
